This is an account of results in patent publication US20250179047A1, “5-[7-(3,4-DIHYDRO-1H-ISOQUINOLINE-2-CARBONYL)-1,2,3,4 TETRAHYDROISOQUINOLIN-6-YL]-1H-PYRROLE-3-CARBOXAMIDE DERIVATIVES, PHARMACEUTICAL COMPOSITIONS CONTAINING THEM AND THEIR USES AS PRO-APOPTOTIC AGENTS” (LES LABORATOIRES SERVIER, priority 2022, published 2025).

Experiment [1] concerns the target BCLXL WT (Homo sapiens (Human), UniProt Q07817). The experiment can be described thus: TR-FRET competitive binding assay, BCLXL WT. To be noted: for Ki: BCLXL WT, Ki determined from IC50, read-out: TR_FRET EKI BclxL; for TR_FRET EKI BCLxL/WT selectivty ratio: ratio Ki BCLxL / Ki BCL2 WT. The method, then: (§1) The relative binding potency of each compound was determined in a competitive binding assay using time resolved-fluorescence resonance energy transfer (TR-FRET). The method utilised a fluorescein labelled peptide derived from PUMA (5Flu-Ahx-[…]-NH2 wherein Ahx means 6-hexanoic acid monomer and the amino acid sequence is referred to as SEQ ID:01) which binds to a terbium labelled BCL2 or BCLXL protein. The degree of binding or corresponding compound inhibition can be quantified by the TR-FRET signal between the terbium donor and fluorescein acceptor.
(§2) The human BCL2_wild-type (also named BCL2_wt), BCL2_G101V mutant and BCLXL_wild-type were E. coli expressed as a N-terminal Halo-fusion proteins and singly labelled with Terbium on the Halo protein to afford the following amino acid sequences:
(§3) wherein the BCL2(1-207) sequence corresponds to UniProtKB® primary accession number P10415 and the BCLXL(2-196) sequence corresponds to UniProtKB® primary accession number Q07817-1.
(§4) The assay was performed in a 40 μL volume in white 384-standard well plates (Corning #3574). An 11-point serial dilution of each compound was prepared in DMSO and transferred directly to plate followed by addition of fluorescein labelled peptide and lastly protein. Final assay conditions were 0.5 nM BCL2_wt, BCL2_G101V, BCL2_D103Y, BCL2_F104I, BCL2_D111A or BCLXL_wt, 2 or 20 nM fluorescein labelled peptide, 50 mM Hepes pH 7.5, 150 mM NaCl, 0.5 mM TCEP (Tris(2-carboxyethyl)phosphine), 0.05% Tween 20, 5% DMSO. The mixture was incubated for 2 hours at 23° C.
(§5) TR-FRET measurements were performed on a Biotek Synergy Neo plate reader. TR-FRET was measured by excitation of the Terbium-donor at 340 nm and subsequent (delay time 100 μs) measurement of terbium and fluorescein emission at 495 nm and 520 nm, respectively, over a collection time of 300 μs. The TR-FRET signal was calculated as the emission-ratio at 520 nm over 495 nm.
(§6) The TR-FRET ratio readout for test compounds was normalized against 0% inhibition controls wells and 100% inhibition control wells. Test compound potency (IC50) was estimated by nonlinear regression using the sigmoidal dose-response (variable slope) using Xlfit 4 (IDBS, Guildford, Surrey, UK, model 205). Were the IC50 could not be determined the % inhibition at the highest tested concentration is given.
(§7) y=(A+((B−A)/(1+((C/x)^D))))
(§8) where y is the normalized TR-TRET ratio measurement for a given concentration of test compound, x is the concentration of test compound, A is the estimated efficacy (% inhibition) at infinite compound dilution, and B is the maximal efficacy (% inhibition). C is the IC50 value and D is the Hill slope coefficient.
(§9) The K1 values were determined from the IC50 values according to Cer et al, Nucleic Acids Res, 2009, July 1; 37 (WebServer issue): W441-W445.
On the technique in general: In TR-FRET formats the signal depends on donor and acceptor labels being close together.

Experiment [2] has as its target BCL2 D103Y (Homo sapiens, UniProt P10415, D103Y). The experiment can be described thus: TR-FRET competitive binding assay, BCL2 D103Y. Conditions: Ki determined from IC50, read-out: TR_FRET EKI_Bcl2 D103Y. As for the experimental part: as §1, §2, §3, §4, §5, §6, §7, §8, §9
Experiment [3] has as its system KMS-12-PE Bcl-2 WT. The experiment can be described thus: In vitro cytotoxicity CellTiter-Glo 48 h, KMS-12-PE Bcl-2 WT. Format: cell-based. Conditions: Homo sapiens, KMS-12-PE, C50 = concentration needed to reach 50% of the cellular viability. The method, then:
(§10) KMS-12-PE (ACC 606) were purchased from the Leibniz-Institute DSMZ (Braunschweig, Germany) and were grown at 37° C. in a humidified atmosphere with […] in media recommended by the suppliers. Lentiviral particles containing Bcl-2 wild type (also named “Bcl2 WT”) and Bcl-2 mutated on G101V (also named “Bcl2 G101V”) were cloned into pcLV-CMV-DEST-IRES-TagRFP. Lentiviral particles (1×106) were mixed with Polybrene at 8 µg/ml and transduced by spinoculation for 1 h at 32° C. and incubated overnight. After 8 days, TagRFP positive-cells were sorted by FACS. BCL2 expression was monitored by immunoblotting using anti-Flag and anti-BCL2 antibodies.
(§11) Cellular viability was monitored with the cell viability assay (CellTiter-Glo®) on KMS-12-PE WT and G101V cell lines. The CellTiter-Glo® (CTG) Luminescent Cell Viability Assay (from Promega) is a homogeneous method to determine the number of viable cells in culture based on quantitation of the ATP present, which signals the presence of metabolically active cells.
(§12) Dose response of compounds are performed with 10 mM stock solutions (DMSO), 11-points curve, in a 384-well compound plate. The assay plate is prepared by stamping 40 nL from compound dilution plate of all different concentrations (e.g. 10 mM to have final […] assay test) into a cell culture microplate, using Echo acoustic liquid handling (Labcyte, Beckman). 40 μl of cell solution is added and cells are incubated with compounds for 48 h at 37° C., 5% CO2. CTG was added to the cells (according to the manufacturer instructions) and luminescence intensity was recorded using the Pherastar plate reader (BMG).
(§13) This assay provides in vitro cellular potency of the tested Bcl-2 inhibitors, measuring the C50, defined as the concentration needed to reach 50% of the cellular viability.
A general note: In ATP-based viability assays light output follows the ATP content of the culture.

In experiment [4] the target is BCL2 WT (Homo sapiens (Human), UniProt P10415). Briefly: TR-FRET competitive binding assay, BCL2 WT. Conditions: Ki determined from IC50, read-out: TR_FRET EKI_Bcl2 WT. The method, then: as §1, §2, §3, §4, §5, §6, §7, §8, §9
Experiment [5] concerns KMS-12-PE Bcl-2 G101V. Briefly: In vitro cytotoxicity CellTiter-Glo 48 h, KMS-12-PE Bcl-2 G101V. Conditions: for Ratio (G101V/WT): C50 KMS-12-PE Bcl-2 G101V over C50 KMS-12-PE Bcl-2 WT; for IC50: Homo sapiens, KMS-12-PE, 48 h, CellTiter-Glo, C50 = concentration needed to reach 50% of the cellular viability. Format: cell-based. The method, then:
as §10, §11, §12, §13

Experiment [6] has as its target BCL2 G101V (Homo sapiens, UniProt P10415, G101V). The experiment can be described thus: TR-FRET competitive binding assay, BCL2 G101V. Conditions: BCL2 G101V; Ki determined from IC50; read-out: TR_FRET EKI_Bcl2 G101V. The method, then:
as §1, §2, §3, §4, §5, §6, §7, §8, §9

For orientation: IC50 means the midpoint of a concentration-inhibition curve.

Sequence of BCLXL WT (Q07817 other isoform, or with tags, fused parts or gaps): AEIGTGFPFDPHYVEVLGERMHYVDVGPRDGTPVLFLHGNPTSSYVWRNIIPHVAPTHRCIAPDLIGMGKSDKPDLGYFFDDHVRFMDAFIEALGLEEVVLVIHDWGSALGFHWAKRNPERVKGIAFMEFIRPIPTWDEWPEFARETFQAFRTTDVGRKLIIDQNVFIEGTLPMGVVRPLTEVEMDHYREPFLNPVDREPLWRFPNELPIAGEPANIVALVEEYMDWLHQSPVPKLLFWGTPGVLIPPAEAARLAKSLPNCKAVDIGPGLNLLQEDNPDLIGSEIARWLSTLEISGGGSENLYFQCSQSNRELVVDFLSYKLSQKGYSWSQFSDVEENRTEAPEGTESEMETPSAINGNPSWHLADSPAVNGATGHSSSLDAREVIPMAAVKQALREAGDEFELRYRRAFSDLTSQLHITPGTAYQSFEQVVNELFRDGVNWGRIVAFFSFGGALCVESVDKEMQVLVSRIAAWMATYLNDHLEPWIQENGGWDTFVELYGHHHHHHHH

In the case of `Cc1c(N(C(=O)c2cc(-c3cc4c(cc3C(=O)N3Cc5ccccc5C[C@H]3CN3CCC[C@@H]3C)CN(C(=O)Cc3ccc(OCCN5CCOCC5)cc3F)CC4)n(C)c2C)c2ccc(O)cc2)cc(C#N)n1C` [Example 173, N-(5-cyano-1,2-dimethylpyrrol-3-yl)-5-[2-(2-{2-fluoro-4-[2-(morpholin-4-yl)ethoxy]phenyl}acetyl)-7-{[(3S)-3-{[(2S)-2-methylpyrrolidin-1-yl]methyl}-3,4-dihydro-1H-isoquinolin-2-yl]carbonyl}-3,4-dihydro-1H-isoquinolin-6-yl]-N-(4-hydroxyphenyl)-1,2-dimethylpyrrole-3-carboxamide], the Ki in experiment [1] stood at 4 nM; in experiment [2], 0.12 nM; in experiment [4], 0.03 nM; in experiment [6] it was 0.3 nM. Also, in experiment [1], the “TR_FRET EKI BCLxL/WT selectivty ratio” value is recorded as 133.3. In addition, the IC50 amounted to 0.0084 µM in experiment [3] and 0.0465 µM in experiment [5]. The “Ratio (G101V/WT)” value in experiment [5] came to 5.5095.
Turning to `Cc1c(C(=O)N(c2ccc(O)cc2)c2cnn(C(F)F)c2)cc(-c2cc3c(cc2C(=O)N2Cc4ccccc4C[C@H]2C)CN(C(=O)Cc2ccc(OCCN4CCOCC4)cc2F)CC3)n1C` [Example 186, N-[1-(difluoromethyl)pyrazol-4-yl]-5-[2-[2-[2-fluoro-4-(2-morpholinoethoxy)phenyl]acetyl]-7-[(3R)-3-methyl-3,4-dihydro-1H-isoquinoline-2-carbonyl]-3,4-dihydro-1H-isoquinolin-6-yl]-N-(4-hydroxyphenyl)-1,2-dimethyl-pyrrole-3-carboxamide], the Ki in experiment [1] was 5.3 nM; in experiment [2], 0.04 nM; in experiment [4] it was 0.01 nM; in experiment [6] it was 0.2 nM. For the same compound, the “TR_FRET EKI BCLxL/WT selectivty ratio” value in experiment [1] is on record as 410.0. The compound further came in with an IC50 in experiment [3] of 0.0047 µM.
Regarding `Cc1c(C(=O)N(c2ccccc2)c2cnn(C(F)F)c2)cc(-c2cc3c(cc2C(=O)N2Cc4ccccc4C[C@H]2C)CN(C(=O)Cc2ccc(OCCN(C)C)cc2)CC3)n1C` [Example 199, N-[1-(difluoromethyl)pyrazol-4-yl]-5-[2-[2-[4-[2-(dimethylamino)ethoxy]phenyl]acetyl]-7-[(3R)-3-methyl-3,4-dihydro-1H-isoquinoline-2-carbonyl]-3,4-dihydro-1H-isoquinolin-6-yl]-1,2-dimethyl-N-phenyl-pyrrole-3-carboxamide], the Ki in experiment [1] turned out to be 8.8 nM; in experiment [2], 0.19 nM; in experiment [4] it was 0.08 nM; in experiment [6], 4.6 nM. In addition, in experiment [1], the “TR_FRET EKI BCLxL/WT selectivty ratio” value is recorded as 116.3. For the same compound, 0.0244 µM corresponded to half-maximal inhibition in experiment [3] (IC50).
`COc1ncc(N(C(=O)c2cc(-c3cc4c(cc3C(=O)N3Cc5ccccc5C[C@H]3C)CN(C(=O)Cc3ccc(OCCN5CCOCC5)cc3)CC4)n(C)c2C)c2ccccc2)cc1C#N` [Example 201, N-(5-cyano-6-methoxy-3-pyridyl)-1,2-dimethyl-5-[7-[(3R)-3-methyl-3,4-dihydro-1H-isoquinoline-2-carbonyl]-2-[2-[4-(2-morpholinoethoxy)phenyl]acetyl]-3,4-dihydro-1H-isoquinolin-6-yl]-N-phenyl-pyrrole-3-carboxamide]: the Ki was 16.4 nM in experiment [1], 0.09 nM in experiment [2], 0.05 nM in experiment [4] and 1.2 nM in experiment [6]. Also, the “TR_FRET EKI BCLxL/WT selectivty ratio” value in experiment [1] is listed as 322.5. In addition, the half-inhibitory concentration (IC50) in experiment [3] worked out at 0.0394 µM.
Take `COCc1ccc(CC(=O)N2CCc3cc(-c4cc(C(=O)N(c5ccc(O)cc5)c5cc(C#N)n(C)c5C)c(C)n4C)c(C(=O)N4Cc5ccccc5C[C@H]4C)cc3C2)cc1` [Example 87, N-(5-cyano-1,2-dimethyl-1H-pyrrol-3-yl)-N-(4-hydroxyphenyl)-5-(2-{2-[4-(methoxymethyl)phenyl]acetyl}-7-[(3R)-3-methyl-1,2,3,4-tetrahydroisoquinoline-2-carbonyl]-1,2,3,4-tetrahydroisoquinolin-6-yl)-1,2-dimethyl-1H-pyrrole-3-carboxamide]: the Ki in experiment [1] was 1.3 nM; in experiment [2], 0.46 nM; in experiment [4], 0.12 nM; in experiment [6], 0.5 nM. In addition, the “TR_FRET EKI BCLxL/WT selectivty ratio” value in experiment [1] was 10.8. Further, the IC50 in experiment [3] was 0.0073 µM; in experiment [5] it was 0.0394 µM. Also, the “Ratio (G101V/WT)” value in experiment [5] stood at 5.43.
On to `COc1ncc(N(C(=O)c2cc(-c3cc4c(cc3C(=O)N3Cc5ccccc5C[C@H]3C)CN(C(=O)Cc3cccc(N5CC6(CN(C)C6)C5)c3)CC4)n(C)c2C)c2ccccc2)cc1F` [Example 198, N-(5-fluoro-6-methoxy-3-pyridyl)-1,2-dimethyl-5-[2-[2-[3-(6-methyl-2,6-diazaspiro[3.3]heptan-2-yl)phenyl]acetyl]-7-[(3R)-3-methyl-3,4-dihydro-1H-isoquinoline-2-carbonyl]-3,4-dihydro-1H-isoquinolin-6-yl]-N-phenyl-pyrrole-3-carboxamide], for which the Ki stood at 0.6 nM in experiment [1], 0.07 nM in experiment [2], 0.01 nM in experiment [4] and 1.4 nM in experiment [6]. For the same compound, the “TR_FRET EKI BCLxL/WT selectivty ratio” value in experiment [1] amounted to 58.6. In addition, the 50% inhibitory concentration (IC50) in experiment [3] was determined as 0.0349 µM.
Compound `Cc1c(N(C(=O)c2cc(-c3cc4c(cc3C(=O)N3Cc5ccccc5C[C@H]3C)CN(C(=O)Cc3cccc(N5CCCN(C)CC5)c3)CC4)n(C)c2C)c2ccc(O)cc2)cc(C#N)n1C` [Example 231] came in with a half-maximal inhibitory concentration (IC50) in experiment [3] of 0.0391 µM.
`Cc1c(N(C(=O)c2cc(-c3cc4c(cc3C(=O)N3Cc5ccccc5C[C@H]3C)CN(C(=O)Cc3ccc(OCCC5CCN(C)CC5)nc3)CC4)n(C)c2C)c2ccc(O)cc2)cc(C#N)n1C` [Example 232] came in with a half-maximal inhibitory concentration (IC50) in experiment [3] of 0.0328 µM. Besides, in experiment [5], the “Ratio (G101V/WT)” value is recorded as 2.0 and half-maximal inhibition (IC50) required 0.0657 µM.
